Earlier results as cited in patent US8167920B2, “Intranasal delivery of compounds that reduce intrancranial pressure” (Codman & Shurtleff, Inc., priority 2006, dated 2012).

Key:
[1] = tested on: mesenteries (lymphatic pump); conditions: 15 minutes superfusion of 30 uM into the mesenteries
[2] = tested on: rat mesenteric lymphatics

| Structure (SMILES) | increase in lymphatic pump flow index [1] | inhibition of the active lymph pump [2] |
| --- | --- | --- |
| COC(=O)[C@@H](N)CCCNC(=N)N[N+](=O)[O-] [L-NAME] | ~40% | – |
| OO [hydrogen peroxide] | – | intense inhibition |
